Common to all, as to test: growth of human tumour cells (NCI), 48 h
For test [1], the system named is 786-0.
Test [2] concerns CCRF-CEM.
Test [3] relates to HCT-116.
Test [4] concerns HCT-15.
The test system of test [5] is HOP-62.
Test [6] deals with K562.
The test system of test [7] is MOLT-4.
For test [8], the system named is Malme-3M.
The test system of test [9] is OVCAR-8.
For test [10], the system named is SF-295.
The subject of test [11] is SF-539.
Test [12] has as its system SK-MEL-5.
The test system of test [13] is SNB-19.
In test [14] the test system is SNB-75.
The subject of test [15] is UACC-257.
In test [16] the test system is NCI-H226.
Test [17] relates to NCI-H23.
Test [18] deals with SK-MEL-28.

Each structure is given as a SMILES string. “And” between values parts separate entries of the source, which are not always exact repeats. Equal values may be shown once.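 Grown in 96-well plates, cells were treated for 48 hours with each compound at five concentrations. Insufficient inhibition: endpoint recorded as highest concentration tested. Abbreviation: GI50, concentration required for 50% inhibition of growth.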 The source made the active and inactive calls. Cut-off read from the data, not from the text of the source: active = GI50 up to about 1.1 µM and inactive = higher. Where only a bound is given, the exact number is not on record here.

As to `O=[N+]([O-])c1ccc(C(O)/C(=N/O)c2nc3ccc(Cl)cc3nc2O)cc1` (centres undefined), the GI50 in [1] is > 100 µM (inactive); in test [2], > 100 µM (inactive); in test [3], > 100 µM (inactive); in [4] it was more than 100 µM; in test [5] it was > 100 µM (inactive); in test [6] it was > 100 µM (inactive). Further, the GI50 in test [7], in [8], in test [9], in test [10], in test [11] and in test [12] was > 100 µM (inactive) each time. Further, the GI50 in test [13], in test [14] and in test [15] was > 100 µM (inactive) throughout.
As to `O=C1CCC2(CCC(=O)NC2=O)C(=O)N1`, the GI50 in [1] was > 100 µM (inactive); in [2], > 100 µM (inactive); in test [3], > 100 µM (inactive); in test [4] it was more than 100 µM; in test [5], > 100 µM (inactive); in [6] it was > 100 µM (inactive). Also, the GI50 in test [7], in [8], in [16], in test [17], in [9] and in test [10] was > 100 µM (inactive) throughout. Further, the GI50 in test [11], in test [18], in [12], in test [13] and in test [15] was > 100 µM (inactive) in each case.
Consider `Cc1ccc(SSCCCS(=O)O)cc1`, for which the GI50 in [1] is 40.4 µM (inactive); in test [3], 30.1 µM (inactive); in [4] it was 29.2 µM; in test [5] it was 29.2 µM (inactive); in [6], 0.766 µM (active); in test [7], 15.2 µM (inactive). For the same compound, the GI50 in [8] is > 100 µM (inactive); in test [17] it was 39 µM (inactive); in [9], 21.6 µM (inactive); in test [10], 32.8 µM (inactive); in test [11] it was 20.7 µM (inactive); in test [18] it was 45.7 µM (inactive). The GI50 in test [12] was 30.1 µM (inactive); in test [13], 49.7 µM (inactive); in test [14] it was 21.8 µM (inactive); in test [15], 50.2 µM (inactive).
`CC(=O)OCC1OC(Sc2nc(-c3ccc(C)cc3)c(C#N)c(=O)n2C2OC(COC(C)=O)C(OC(C)=O)C(OC(C)=O)C2OC(C)=O)C(OC(C)=O)C(OC(C)=O)C1OC(C)=O` (centres undefined): the GI50 in [1] was > 100 µM (inactive); in test [2] it was 4.83 µM (inactive) and 6.76 µM (inactive); in test [3], > 100 µM (inactive); in test [4] it was more than 100 µM; in test [5], > 100 µM (inactive); in test [7], > 100 µM (inactive). Also, the GI50 in test [16], in test [17], in test [9], in test [10], in test [11] and in [18] was > 100 µM (inactive) in each case. For the same compound, the GI50 in test [12], in test [13], in test [14] and in test [15] was > 100 µM (inactive) throughout.
Take `Cc1nc(-n2nc(-c3ccccc3)cc2-c2ccccc2)sc1C(=O)/C=C/c1ccc(/C=C/C(=O)c2sc(-n3nc(-c4ccccc4)cc3-c3ccccc3)nc2C)cc1`: the GI50 was 18.6 µM (inactive) in test [1]; 30.6 µM (inactive) in [2]; 19.8 µM (inactive) in test [3]; 34.3 µM in test [4]; 23.6 µM (inactive) in [5]; 30.3 µM (inactive) in test [6]. Also, the GI50 in [7] was 25.1 µM (inactive); in test [8], 19.1 µM (inactive); in test [16], 26.8 µM (inactive); in [17], 19.1 µM (inactive); in test [9], 32.8 µM (inactive); in test [10], 23.9 µM (inactive). Also, the GI50 in [11] was 19.2 µM (inactive); in test [18], 19.5 µM (inactive); in [13], 21.8 µM (inactive); in [15] it was 21 µM (inactive).
Consider `O=C1CC(c2c[nH]c3ccccc23)C(=O)N1c1ccccc1` (centres undefined), for which the GI50 was > 100 µM (inactive) in [1]; > 100 µM (inactive) in [2]; > 100 µM (inactive) in test [3]; more than 100 µM in test [4]; > 100 µM (inactive) in test [5]; > 100 µM (inactive) in [6]. In addition, the GI50 in test [7], in test [8], in [16], in test [17], in test [9] and in test [10] was > 100 µM (inactive) in each case. The GI50 in test [11], in test [18], in test [12], in [14] and in test [15] was > 100 µM (inactive) each time.
With `C=CCN1C2Cc3cc(OC)c(OC)cc3C1Cc1cc(OC)c(OC)cc12`, the GI50 in test [1] is > 100 µM (inactive); in test [2] it was > 100 µM (inactive); in test [4], more than 100 µM; in test [5], > 100 µM (inactive); in test [6], > 100 µM (inactive); in test [7] it was > 100 µM (inactive). Further, the GI50 was > 100 µM (inactive) in test [8]; 78.9 µM (inactive) in [17]; > 100 µM (inactive) in test [9]; 53.8 µM (inactive) in test [10]; > 100 µM (inactive) in test [18]; > 100 µM (inactive) in [12]. In addition, the GI50 in test [13], in test [14] and in [15] was > 100 µM (inactive) in each case.
Consider `CCSC(=O)C1(C)OC2CCCCC2C1=O` (centres undefined), for which the GI50 in test [1] is > 100 µM (inactive); in [2] it was > 100 µM (inactive); in [3] it was > 100 µM (inactive); in [4] it was more than 100 µM; in [5], > 100 µM (inactive); in [6], > 100 µM (inactive). Moreover, the GI50 in test [7], in test [8], in test [16], in test [9], in test [11] and in test [18] was > 100 µM (inactive) each time. Moreover, the GI50 in [12], in [13], in test [14] and in test [15] was > 100 µM (inactive) each time.
For `O=C(Nc1cccc2c1C(=O)c1c(NC(=O)c3ccccc3)ccc(Nc3cccc4c3C(=O)c3ccccc3C4=O)c1C2=O)c1ccccc1`, the GI50 in test [1] was > 100 µM (inactive); in [2], > 100 µM (inactive); in test [3], > 100 µM (inactive); in test [4], more than 100 µM; in test [5], > 100 µM (inactive); in test [6] it was > 100 µM (inactive). For the same compound, the GI50 in [7], in test [8], in test [16], in test [9], in [11] and in test [18] was > 100 µM (inactive) in each case. For the same compound, the GI50 in test [12] was > 100 µM (inactive); in test [13] it was > 100 µM (inactive); in [14], 70.3 µM (inactive); in test [15], > 100 µM (inactive).

These data come from ChEMBL document CHEMBL1201862, “PubChem BioAssay data set” (2004).
